Among the data in the NIST ThermoML archive (doi:10.1016/j.fluid.2017.06.026) are surface tension liquid-gas values, retold here.

Each structure is given as a SMILES string. ± gives the expanded uncertainty stated by the source.

The conditions of this data set: 298.15 K, Ring tensiometer.

The surface tension liquid-gas is the work needed to enlarge the surface of a liquid by unit area. Take `CCCCCOP(=O)(OCCCCC)OCCCCC` [tripentyl phosphate]: the surface tension liquid-gas amounted to 26.2 ± 3 mN/m.

Take `O=P(OCC(F)(F)C(F)(F)C(F)(F)C(F)F)(OCC(F)(F)C(F)(F)C(F)(F)C(F)F)OCC(F)(F)C(F)(F)C(F)(F)C(F)F` [tris (1H,1H,5H-octafluoropentyl) phosphate]: the surface tension liquid-gas is reported as 22.9 ± 3 mN/m.
